Our source for the IC50 values is patent publication US20260217735A1, “HETEROCYCLES AND USES THEREOF” (Kumquat Biosciences Inc., priority 2023, published 2026).

The target in one test is T1, KRAS G12D (Homo sapiens, UniProt P01116, G12D).
T1 construct: made in house; host or cells: E. coli, e.g. BL21 (DE3)
Nature of the test: HTRF assay, KRAS G12D interaction with SOS1. Format: biochemical. Conditions: bins <500 nM / 500 nM to 1000 nM, read-out: Inhibition of KRAS G12D (IC50).

A further test addresses T2, KRAS G12S (Homo sapiens, UniProt P01116, G12S).
T2 construct: made in house; host or cells: E. coli, e.g. BL21 (DE3)
Description: HTRF assay, KRAS G12S interaction with SOS1. The format is biochemical. Conditions: bins <500 nM / 500 nM to 1000 nM, read-out: Inhibition of KRAS G12S (IC50). A general note: In TR-FRET formats the signal depends on donor and acceptor labels being close together.

A further test concerns MiaPaca2 cells. Nature of the test: Ras cellular assay, growth of cells with K-Ras G12C mutation. Format: cell-based. To be noted: Homo sapiens, MIA PaCa-2; cell proliferation assay; bins ≤500 nM / >500 nM; read-out: Inhibition of MiaPaca2 Cells (IC50). In outline:
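MIA PaCa-2 cells (K-Ras G12C, about 125-150 cells/well) grown in 0.25% soft agar over a 0.6% agar base, compound added on day 2 at 0.3% final DMSO. Growth read on day 10 by Cell Titer 96 AQueous absorbance (490 nm, reference 660 nm) against time-zero wells; IC50 from four-parameter fit.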

For the next test, the target named is T3, KRAS WT (Homo sapiens, UniProt P01116).
T3 construct: made in house; host or cells: E. coli, e.g. BL21 (DE3)
Nature of the test: HTRF assay, wildtype KRAS interaction with SOS1. Format: biochemical. Conditions: bins <500 nM / 500 nM to 1000 nM, read-out: Inhibition of KRAS WT (IC50).

In another test the target is T4, KRAS G12V (Homo sapiens, UniProt P01116, G12V).
T4 construct: made in house; host or cells: E. coli, e.g. BL21 (DE3)
Nature of the test: HTRF assay, KRAS G12V interaction with SOS1. Format: biochemical. To be noted: bins <500 nM / 500 nM to 1000 nM, read-out: Inhibition of KRAS G12V (IC50).

T3 sequence (P01116 1-188 isoform P01116-2): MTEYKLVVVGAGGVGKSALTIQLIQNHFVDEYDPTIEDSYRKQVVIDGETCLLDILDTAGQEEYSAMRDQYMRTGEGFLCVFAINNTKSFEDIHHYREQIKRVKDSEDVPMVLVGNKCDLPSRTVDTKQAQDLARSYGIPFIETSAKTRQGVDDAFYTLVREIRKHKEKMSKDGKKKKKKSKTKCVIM
T4 sequence (P01116 1-188 isoform P01116-2 G12V): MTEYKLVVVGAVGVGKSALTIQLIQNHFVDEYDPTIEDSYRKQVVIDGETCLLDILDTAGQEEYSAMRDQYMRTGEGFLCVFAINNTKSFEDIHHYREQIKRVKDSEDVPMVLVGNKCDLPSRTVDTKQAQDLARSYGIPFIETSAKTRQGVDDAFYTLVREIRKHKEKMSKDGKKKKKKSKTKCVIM
T1 sequence (P01116 1-188 isoform P01116-2 G12D): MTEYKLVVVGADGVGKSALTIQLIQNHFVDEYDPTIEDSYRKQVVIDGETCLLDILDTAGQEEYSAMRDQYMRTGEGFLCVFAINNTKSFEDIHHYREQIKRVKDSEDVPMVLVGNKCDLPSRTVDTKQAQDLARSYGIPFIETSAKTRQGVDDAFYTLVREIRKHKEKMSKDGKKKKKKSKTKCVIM
T2 sequence (P01116 1-188 isoform P01116-2 G12S): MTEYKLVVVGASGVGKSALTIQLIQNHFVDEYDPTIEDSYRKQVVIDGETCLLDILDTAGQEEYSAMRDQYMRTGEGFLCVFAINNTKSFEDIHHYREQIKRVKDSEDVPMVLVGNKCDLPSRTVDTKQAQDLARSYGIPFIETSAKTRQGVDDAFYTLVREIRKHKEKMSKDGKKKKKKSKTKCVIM

One may read the IC50 as the point on the concentration scale where inhibition reaches its midpoint. For `CCN(c1nc(OC[C@@]23CCCN2C[C@H](F)C3)nc2c(F)c(-c3ccc(F)c4sc(N)c(C#N)c34)c(Cl)cc12)[C@@H]1CCN(C(=O)n2ccnc2C#N)[C@@H]1C` [Compound 188, 1-((2R,3R)-3-((7-(2-amino-3-cyano-7-fluorobenzo[b]thiophen-4-yl)-6-chloro-8-fluoro-2-(((2R,7aS)-2-fluorotetrahydro-1H-pyrrolizin-7a(5H)-yl)methoxy)quinazolin-4-yl)(ethyl)amino)-2-methylpyrrolidine-1-carbonyl)-1H-imidazole-2-carbonitrile], the IC50 at KRAS G12D was less than 500 nM; at KRAS G12S, less than 500 nM; in the test on MiaPaca2 cells, no more than 500 nM; on KRAS WT, less than 500 nM; on KRAS G12V, less than 500 nM.
On to `Cc1nc(C#N)cn1C(=O)N1CC2CCN(c3nc(OC[C@@]45CCCN4C[C@H](F)C5)nc4c(F)c(-c5ccc(F)c6sc(N)c(C#N)c56)c(Cl)cc34)C2C1` (stereo partly drawn) [Compound 192, 1-(1-(7-(2-amino-3-cyano-7-fluorobenzo[b]thiophen-4-yl)-6-chloro-8-fluoro-2-(((2R,7aS)-2-fluorotetrahydro-1H-pyrrolizin-7a(5H)-yl)methoxy)quinazolin-4-yl)octahydropyrrolo[3,4-b]pyrrole-5-carbonyl)-2-methyl-1H-imidazole-4-carbonitrile], for which the IC50 was less than 500 nM on KRAS G12D; less than 500 nM at KRAS G12S; no more than 500 nM in the test on MiaPaca2 cells; less than 500 nM at KRAS WT; less than 500 nM at KRAS G12V.
For `C[C@@H]1[C@H](N(C)c2nc(OC[C@@]34CCCN3C[C@H](F)C4)nc3c(F)c(-c4ccc(F)c5sc(N)c(C#N)c45)c(Cl)cc23)CCN1C(=O)n1ccnc1C(F)(F)F` [Compound 194, 2-amino-4-(6-chloro-8-fluoro-2-(((2R,7aS)-2-fluorotetrahydro-1H-pyrrolizin-7a(5H)-yl)methoxy)-4-(methyl((2R,3R)-2-methyl-1-(2-(trifluoromethyl)-1H-imidazole-1-carbonyl)pyrrolidin-3-yl)amino)quinazolin-7-yl)-7-fluorobenzo[b]thiophene-3-carbonitrile], the IC50 was less than 500 nM at KRAS G12D; less than 500 nM at KRAS G12S; no more than 500 nM in the test on MiaPaca2 cells; less than 500 nM on KRAS WT; less than 500 nM on KRAS G12V.
In the case of `CCN(c1nc(OC[C@@]23CCCN2C[C@H](F)C3)nc2c(F)c(-c3cccc4sc(N)c(C#N)c34)c(Cl)cc12)[C@@H]1CCN(C(=O)n2cc(C)nc2C)[C@@H]1C` [Compound 195, 2-amino-4-(6-chloro-4-(((2R,3R)-1-(2,4-dimethyl-1H-imidazole-1-carbonyl)-2-methylpyrrolidin-3-yl)(ethyl)amino)-8-fluoro-2-(((2R,7aS)-2-fluorotetrahydro-1H-pyrrolizin-7a(5H)-yl)methoxy)quinazolin-7-yl)benzo[b]thiophene-3-carbonitrile], the IC50 at KRAS G12D was less than 500 nM; on KRAS G12S, less than 500 nM; with MiaPaca2 cells, no more than 500 nM; on KRAS WT, less than 500 nM; on KRAS G12V it was less than 500 nM.
Regarding `CCN(c1nc(OC[C@@]23CCCN2C[C@H](F)C3)nc2c(F)c(-c3cc(N)c(F)c(C)c3C(F)(F)F)ncc12)[C@@H]1CCN(C(=O)n2cc(C)nc2C)[C@@H]1C` [Compound 196, ((2R,3R)-3-((7-(5-amino-4-fluoro-3-methyl-2-(trifluoromethyl)phenyl)-8-fluoro-2-(((2R,7aS)-2-fluorotetrahydro-1H-pyrrolizin-7a(5H)-yl)methoxy)pyrido[4,3-d]pyrimidin-4-yl)(ethyl)amino)-2-methylpyrrolidin-1-yl)(2,4-dimethyl-1H-imidazol-1-yl)methanone], the IC50 on KRAS G12D was 500 to 1000 nM; on KRAS G12S, less than 500 nM; in the test with MiaPaca2 cells, no more than 500 nM; on KRAS WT, less than 500 nM; on KRAS G12V it was less than 500 nM.
As to `CC[C@@H]1[C@H](N(C)c2nc(OC[C@@]34CCCN3C[C@H](F)C4)nc3c(F)c(-c4ccc(F)c5sc(N)c(C#N)c45)c(Cl)cc23)CCN1C(=O)n1ccnc1` [Compound 198, 2-amino-4-(6-chloro-4-(((2R,3R)-2-ethyl-1-(1H-imidazole-1-carbonyl)pyrrolidin-3-yl)(methyl)amino)-8-fluoro-2-(((2R,7aS)-2-fluorotetrahydro-1H-pyrrolizin-7a(5H)-yl)methoxy)quinazolin-7-yl)-7-fluorobenzo[b]thiophene-3-carbonitrile], the IC50 at KRAS G12D is less than 500 nM; at KRAS G12S, less than 500 nM; with MiaPaca2 cells, no more than 500 nM; on KRAS WT, less than 500 nM; at KRAS G12V, less than 500 nM.
In the case of `C[C@@H]1[C@H](N(C)c2nc(OC[C@@]34CCCN3C[C@H](F)C4)nc3c(F)c(-c4ccc(F)c5sc(N)c(C#N)c45)c(Cl)cc23)CCN1C(=O)n1cnc(C#N)c1` [Compound 199, 1-((2R,3R)-3-((7-(2-amino-3-cyano-7-fluorobenzo[b]thiophen-4-yl)-6-chloro-8-fluoro-2-(((2R,7aS)-2-fluorotetrahydro-1H-pyrrolizin-7a(5H)-yl)methoxy)quinazolin-4-yl)(methyl)amino)-2-methylpyrrolidine-1-carbonyl)-1H-imidazole-4-carbonitrile], the IC50 at KRAS G12D was less than 500 nM; at KRAS G12S it was less than 500 nM; in the test with MiaPaca2 cells, no more than 500 nM; on KRAS WT, less than 500 nM; on KRAS G12V it was less than 500 nM.
As to `C[C@@H]1[C@H](N(C)c2nc(OC[C@@]34CCCN3C[C@H](F)C4)nc3c(F)c(-c4ccc(F)c5sc(N)c(C#N)c45)c(C(F)(F)F)cc23)CCN1C(=O)n1ccnc1` [Compound 200, 4-(4-(((2R,3R)-1-(1H-imidazole-1-carbonyl)-2-methylpyrrolidin-3-yl)(methyl)amino)-8-fluoro-2-(((2R,7aS)-2-fluorotetrahydro-1H-pyrrolizin-7a(5H)-yl)methoxy)-6-(trifluoromethyl)quinazolin-7-yl)-2-amino-7-fluorobenzo[b]thiophene-3-carbonitrile], the IC50 at KRAS G12D was less than 500 nM; at KRAS G12S, less than 500 nM; in the test with MiaPaca2 cells, no more than 500 nM; on KRAS WT, less than 500 nM; on KRAS G12V, less than 500 nM.
Turning to `C[C@@H]1[C@H](N(C)c2nc(OC[C@@]34CCCN3C[C@H](F)C4)nc3c(F)c(-c4ccc(F)c5sc(N)c(C#N)c45)c(Cl)cc23)CCN1C(=O)n1ccnc1C1CC1` [Compound 201, 2-amino-4-(6-chloro-4-(((2R,3R)-1-(2-cyclopropyl-1H-imidazole-1-carbonyl)-2-methylpyrrolidin-3-yl)(methyl)amino)-8-fluoro-2-(((2R,7aS)-2-fluorotetrahydro-1H-pyrrolizin-7a(5H)-yl)methoxy)quinazolin-7-yl)-7-fluorobenzo[b]thiophene-3-carbonitrile], the IC50 on KRAS G12D is less than 500 nM; at KRAS G12S it was less than 500 nM; with MiaPaca2 cells it was no more than 500 nM; at KRAS WT it was less than 500 nM; on KRAS G12V it was less than 500 nM.
